According to US20220256890A1, “ANIMAL FEED SUPPLEMENT AND ANIMAL FEED COMPOSITION” (MOOTRAL INNOVATIONS LIMITED, priority 2019, published 2022):

Test system: rumen inoculum
Experiment: in vitro incubation of test materials with rumen inoculum, methane measured by micro-gas chromatograph
Type: cell-based, dairy cows
Details: Example 2, no garlic, 24 hour incubation
Description: Rumen inoculum was obtained before the morning feeding from 3 rumen fistulated dairy cows on a diet composed of 50% maize silage and 50% wilted grass silage (on dry matter basis) supplemented with some straw and urea. Additionally, soybean meal and balanced compound feed were administered to fulfil the animals' requirements for milk production. Test materials were incubated in 125-mL flasks containing 25 mL of CO2-saturated bicarbonate/phosphate buffer (containing 3.58 g Na2HPO4.12H2O, 1.55 g KH2PO4, 0.124 g MgCl2.6H2O, 8.74 g NaHCO3 and 1.71 g NH4HCO3 per liter of distilled water) and rumen inoculum, in triplicate per test material (3 biological replicates). A mixture of maize silage (crude protein 65.6 g kg^−1, crude fat 27.9 g kg^−1, crude fibre 145 g kg^−1 and starch 410 g kg DM^−1), grass silage (crude protein 153 g kg^−1, crude fat 28.8 g kg^−1, crude fibre 277 g kg^−1 and sugar 78.5 g kg^−1) and dairy concentrate (crude protein 183 g kg^−1, crude fibre 29 g kg^−1 an sugar 89 g kg^−1) was used as the substrate (30/30/40, DM weight basis, 250 mg flask^−1). The test materials (garlic powder, eugenol, geranyl acetate and coriander oil) were added shortly before the incubation directly into the fluid. All flasks were incubated in a shaking incubator at 39° C. (Edmund Buhler Gmbh, Hechingen, Germany). At the end of the 24 hour incubation, flasks were removed from the incubator and placed in ice water to stop the fermentation. pH, gas pressure and gas composition were measured, and samples were collected for VFA analysis. Different amounts of garlic powder were used providing allicin doses of 0.1 mg, 0.2 mg, 0.4 mg, and 0.8 mg per flask (i.e. 4 mg/l, 8 mg/l, 16 mg/l, and 32 mg/l). A fixed concentration of 500 mg/l (i.e. 12.5 mg/flask) for the other test materials was used. Water was used as a negative control. The amount of methane gas was measured using a micro-gas chromatograph equipped with two gas chromatographic modules and a thermal conductivity detector (3000 micro-GC, Agilent, USA). Ethane (C2H6; 1 mL/flask) was used as internal standard and argon as a carrier gas for both columns. The data obtained with the test materials was normalized to a non-treated control group, i.e. samples receiving the substrate only (negative control). I.e. 100% refers to the value of the negative control. Values below 100% indicate reduction of methane as a result of the additive. Values above 100% indicate an increase in methane production. The synergism between garlic and a component of essential oil was also studied. Synergy was calculated by adding the percentage reduction of methane by garlic alone and eugenol or geranyl acetate alone and then subtracting the percentage reduction of the combination and the component of essential oil. The resulting values were inversed. […] An experiment was conducted to test the dose-dependent effects of the essential oils and the components of the essential oils. The same method and test materials of Example 1 was used in this experiment. Different amounts of garlic powder were used providing allicin doses of 0.1 mg, 0.2 mg, 0.4 mg, and 0.8 mg per flask (i.e. 4 mg/l, 8 mg/l, 16 mg/l, and 32 mg/l). The doses of eugenol, geranyl acetate, coriander oil and bornyl acetate were varied in this experiment whereby 0.25 mg/ml, 0.5 mg/ml, 0.75 mg/ml of test materials was used. Water was used as a negative control. The amount of methane produced for each reaction was measured using the same method as described in Example 1.

[1] = essential oil or component alone 0.25 mg/mL
[2] = essential oil or component alone 0.5 mg/mL
[3] = essential oil or component alone 0.75 mg/mL

| SMILES | production of methane [1] [μmol/reaction] | production of methane [2] [μmol/reaction] | production of methane [3] [μmol/reaction] |
| --- | --- | --- | --- |
| C=CCc1ccc(O)c(OC)c1 [Eugenol] | 388 | 310 | 234 |
| CC(=O)OC/C=C(\C)CCC=C(C)C [Geranyl acetate] | 436 | 327 | 203 |
| CC(=O)OC1CC2CCC1(C)C2(C)C (stereo not drawn) [Bornyl acetate] | 422 | 353 | 267 |
